Assay results: paper PMC3723632, “A Multi-targeted Drug Candidate with Dual Anti-HIV and Anti-HSV Activity” (PLoS Pathogens, 2013)
Values after ≈ are worked out from the molar mass of the structure shown.

Legend:
[1] = system: M/M cultures; test: Viability of M/M cultures; type: cell-based, human; conditions: 100 µg/ml
Procedure: Monocyte/macrophage (M/M) lineage cells can be infected by HSV-2 and HIV-1. M/M reside in genital herpes lesions and are thought to be reservoirs of HIV [6], [23]. […] Lower concentrations were dose-dependently inhibitory, with EC50 values ranging between 0.02 and 0.2 µg/ml (Table 1, Table 3).

[2] = system: CXCR4 or CXCR3; test: Flow cytometry of CXCR4 and CXCR3 expression on PBMC; type: cell-based, human; conditions: data not shown
Procedure: PBMC were cultured in the presence of adefovir, tenofovir, and PMEO-DAPym and incubated at 37°C in a humidified, 5% CO2-controlled atmosphere. The expression of cellular activation markers was measured after 3 days of culture. Briefly, after washing the cells with PBS containing 2% FCS, we incubated them with PerCP-conjugated anti-CD4 mAb (clone SK3) in combination with PE-conjugated anti-CD25, anti-CD69, or anti-HLA-DR mAbs for 30 min at room temperature. For aspecific background staining, cells were stained in parallel with Simultest Control IgG γ1/γ2a and PerCP-conjugated mouse IgG1. Finally, the cells were washed with PBS, fixed with 1% formaldehyde solution, and analyzed with a FACSCalibur (BD Biosciences, San Jose, CA); data were acquired with CellQuest software and further analyzed with the FLOWJO software (Tree Star, San Carlos, CA). The expression of the chemokine receptors was measured after 24 h, and PBMC were incubated with PerCP-conjugated anti-CD4 mAb (clone SK3) in combination with APC-conjugated anti-CXCR4 mAb (clone 12G5) and PE-conjugated anti-CCR5 (clone 2D7) or anti-CXCR3 (clone 1C6). To evaluate the biological effects of the β-chemokines produced by drug-treated PBMC, freshly isolated PBMC were incubated for 1 h at 37°C with supernatants collected from PBMC cultures treated with compounds for 24 h. […]

[3] = system: HSV-2 (NS and RV-194); test: Virus yield reduction assay in HEL cells, HSV-2 clinical isolates; conditions: for EC90: Human alphaherpesvirus 2, HEL
Procedure: These assays were carried out in HEL cell monolayers at different times post infection. […] After 2 h at 37°C, the cells were washed and medium containing different concentrations of PMEO-DAPym (in duplicate) was added. Following 24, 48, and 72 h of incubation, we released the viruses by freeze-thawing and then titrated them using a plaque assay in HEL cells.

## Nc1cc(OCCOCP(=O)(O)O)nc(N)n1 [PMEO-DAPym, 6-phosphonylmethoxyethoxy-2,4-diaminopyrimidine]
[1]
  effect on the viability of M/M cultures: No effect on the viability
[2]
  downregulation of CXCR4 or CXCR3: No downregulation
[3]; 24 h, Strain NS, moi = 1x10^-3, 24 hours
  EC90: < 1 µg/mL
[3]; 24 h, Strain NS, moi = 1x10^-4, 24 hours
  EC90: < 1 µg/mL
[3]; 24 h, Strain RV-194, moi = 1x10^-3, 24 hours
  EC90: 2.08 µg/mL (≈ 7.87 µM)
[3]; 24 h, Strain RV-194, moi = 1x10^-4, 24 hours
  EC90: < 1 µg/mL
[3]; 48 h, Strain NS, moi = 1x10^-3, 48 hours
  EC90: < 1 µg/mL
[3]; 48 h, Strain NS, moi = 1x10^-4, 48 hours
  EC90: < 1 µg/mL
[3]; 48 h, Strain RV-194, moi = 1x10^-3, 48 hours
  EC90: < 1 µg/mL
[3]; 48 h, Strain RV-194, moi = 1x10^-4, 48 hours
  EC90: < 1 µg/mL
[3]; 72 h, Strain NS, moi = 1x10^-3, 72 hours
  EC90: 1.34 µg/mL (≈ 5.07 µM)
[3]; 72 h, Strain NS, moi = 1x10^-4, 72 hours
  EC90: < 1 µg/mL
[3]; 72 h, Strain RV-194, moi = 1x10^-3, 72 hours
  EC90: 1 µg/mL (≈ 3.79 µM)
[3]; 72 h, Strain RV-194, moi = 1x10^-4, 72 hours
  EC90: < 1 µg/mL
[3]; Strain NS, moi = 1x10^-3, 24 hours
  EC99: 3.0 µg/mL
[3]; Strain NS, moi = 1x10^-3, 48 hours
  EC99: 3.28 µg/mL
[3]; Strain NS, moi = 1x10^-3, 72 hours
  EC99: 3.63 µg/mL
[3]; Strain NS, moi = 1x10^-4, 24 hours
  EC99: 3.6 µg/mL
[3]; Strain NS, moi = 1x10^-4, 48 hours
  EC99: 1.0 µg/mL
[3]; Strain NS, moi = 1x10^-4, 72 hours
  EC99: 2.3 µg/mL
[3]; Strain RV-194, moi = 1x10^-3, 24 hours
  EC99: 7.15 µg/mL
[3]; Strain RV-194, moi = 1x10^-3, 48 hours
  EC99: 1.0 µg/mL
[3]; Strain RV-194, moi = 1x10^-3, 72 hours
  EC99: 3.58 µg/mL
[3]; Strain RV-194, moi = 1x10^-4, 24 hours
  EC99: < 1 µg/mL
[3]; Strain RV-194, moi = 1x10^-4, 48 hours
  EC99: 1.58 µg/mL
[3]; Strain RV-194, moi = 1x10^-4, 72 hours
  EC99: 2.62 µg/mL
